# Data reported in the supplement of paper PMC10627819.
# How the values were obtained:
# S. aureus DSM 20231 [1] = experiment: Bliss interaction score (quartile over a dose matrix) (fitness difference); higher = more antagonism (negative = synergy)
# Procedure, shortened: (§1)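 The Bliss score takes observed fitness and subtracts the expected fitness, calculated as a product of single-drug fitness values. Those single-drug values were inferred from the combination data. Fitness is OD595 at entry into stationary phase divided by the plate's robust no-drug mean, capped at 1, and the score is summarised by quartiles across technical, biological and donor/recipient replicates.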
# B. subtilis 168 = experiment: as above
# Procedure, shortened: as §1
# S. pneumoniae D39V [2] = experiment: as above
# Procedure, shortened: as §1
# S. aureus Newman [3] = experiment: as above
# Procedure, shortened: as §1
# S. aureus DSM 20231 [4] = experiment: fitness (endpoint OD595 vs no drug) (fraction); higher = more growth
# Procedure, shortened: (§2)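 Bacterial growth was followed in 384-well plates seeded at OD595 0.01, with 30 µl per well, or 55 µl for S. pneumoniae, in TSB, LB Lennox or CY at 37 °C. OD595 was read every 30 min for 14 h, and each reading had the first reading subtracted as background. Fitness is the background-corrected optical density at entry into stationary phase divided by the robust mean of the no-drug control wells. This ratio is capped at 1.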
# S. pneumoniae D39V [5] = experiment: as above
# Procedure, shortened: as §2
# S. aureus Newman [6] = experiment: as above
# Procedure, shortened: as §2
# [7] = first compound 0.125 µg/mL, partner 1 µg/mL
# [8] = first compound 0.125 µg/mL, partner 2 µg/mL
# [9] = first compound 0.125 µg/mL, partner 4 µg/mL
# [10] = first compound 0.25 µg/mL, partner 1 µg/mL
# [11] = first compound 0.25 µg/mL, partner 2 µg/mL
# [12] = first compound 0.25 µg/mL, partner 4 µg/mL
# [13] = first compound 0.5 µg/mL, partner 1 µg/mL
# [14] = first compound 0.5 µg/mL, partner 2 µg/mL
# [15] = first compound 0.5 µg/mL, partner 4 µg/mL
# [16] = first compound 0.125 µg/mL, partner 0.625 µg/mL
# [17] = first compound 0.125 µg/mL, partner 1.25 µg/mL
# [18] = first compound 0.125 µg/mL, partner 2.5 µg/mL
# [19] = first compound 0.25 µg/mL, partner 0.625 µg/mL
# [20] = first compound 0.25 µg/mL, partner 1.25 µg/mL
# [21] = first compound 0.25 µg/mL, partner 2.5 µg/mL
# [22] = first compound 0.5 µg/mL, partner 0.625 µg/mL
# [23] = first compound 0.5 µg/mL, partner 1.25 µg/mL
# [24] = first compound 0.5 µg/mL, partner 2.5 µg/mL
# 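For Bliss interaction score (quartile over a dose matrix) in this document: first quartile when negative (synergy) and third quartile when positive (antagonism).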
structure (smiles),measurement,setting,value
CO/N=C(\C(=O)N[C@@H]1C(=O)N2C(C(=O)[O-])=C(C[N+]3(C)CCCC3)CS[C@H]12)c1csc(N)n1 [Cefepime] + Cc1cc(NS(=O)(=O)c2ccc(N)cc2)no1 [Sulfamethoxazol],Bliss interaction score,S. aureus DSM 20231 [1],-0.0768
same,Bliss interaction score,B. subtilis 168,0.0793
same,Bliss interaction score,S. pneumoniae D39V [2],0.034
same,Bliss interaction score,S. aureus Newman [3],-0.0727
same,fitness,S. aureus DSM 20231 [4]; [7],0.839
same,fitness,S. aureus DSM 20231 [4]; [8],0.88
same,fitness,S. aureus DSM 20231 [4]; [9],0.874
same,fitness,S. aureus DSM 20231 [4]; [10],0.739
same,fitness,S. aureus DSM 20231 [4]; [11],0.766
same,fitness,S. aureus DSM 20231 [4]; [12],0.779
same,fitness,S. aureus DSM 20231 [4]; [13],0.79
same,fitness,S. aureus DSM 20231 [4]; [14],0.84
same,fitness,S. aureus DSM 20231 [4]; [15],0.823
same,fitness,"S. pneumoniae D39V [5]; first compound 0.007 µg/mL, partner 1 µg/mL",0.978
same,fitness,"S. pneumoniae D39V [5]; first compound 0.007 µg/mL, partner 2 µg/mL",0.982
same,fitness,"S. pneumoniae D39V [5]; first compound 0.007 µg/mL, partner 4 µg/mL",0.98
same,fitness,"S. pneumoniae D39V [5]; first compound 0.0078 µg/mL, partner 1 µg/mL, one replicate",≥ 1
same,fitness,"S. pneumoniae D39V [5]; first compound 0.0078 µg/mL, partner 2 µg/mL, one replicate",≥ 1
same,fitness,"S. pneumoniae D39V [5]; first compound 0.0078 µg/mL, partner 4 µg/mL, one replicate",0.959
same,fitness,"S. pneumoniae D39V [5]; first compound 0.014 µg/mL, partner 1 µg/mL",0.991
same,fitness,"S. pneumoniae D39V [5]; first compound 0.014 µg/mL, partner 2 µg/mL",0.986
same,fitness,"S. pneumoniae D39V [5]; first compound 0.014 µg/mL, partner 4 µg/mL",0.992
same,fitness,"S. pneumoniae D39V [5]; first compound 0.0155 µg/mL, partner 1 µg/mL, one replicate",0.99
same,fitness,"S. pneumoniae D39V [5]; first compound 0.0155 µg/mL, partner 2 µg/mL, one replicate",≥ 1
same,fitness,"S. pneumoniae D39V [5]; first compound 0.0155 µg/mL, partner 4 µg/mL, one replicate",0.914
same,fitness,"S. pneumoniae D39V [5]; first compound 0.028 µg/mL, partner 1 µg/mL",0.887
same,fitness,"S. pneumoniae D39V [5]; first compound 0.028 µg/mL, partner 2 µg/mL",0.922
same,fitness,"S. pneumoniae D39V [5]; first compound 0.028 µg/mL, partner 4 µg/mL",0.892
same,fitness,"S. pneumoniae D39V [5]; first compound 0.031 µg/mL, partner 1 µg/mL, one replicate",0.842
same,fitness,"S. pneumoniae D39V [5]; first compound 0.031 µg/mL, partner 2 µg/mL, one replicate",0.866
same,fitness,"S. pneumoniae D39V [5]; first compound 0.031 µg/mL, partner 4 µg/mL, one replicate",0.804
same,fitness,S. aureus Newman [6]; [7],0.956
same,fitness,S. aureus Newman [6]; [8],0.908
same,fitness,S. aureus Newman [6]; [9],0.964
same,fitness,"S. aureus Newman [6]; first compound 0.125 µg/mL, partner 8 µg/mL, one replicate",0.981
same,fitness,S. aureus Newman [6]; [10],0.875
same,fitness,S. aureus Newman [6]; [11],0.843
same,fitness,S. aureus Newman [6]; [12],0.863
same,fitness,"S. aureus Newman [6]; first compound 0.25 µg/mL, partner 8 µg/mL, one replicate",0.972
same,fitness,S. aureus Newman [6]; [13],0.745
same,fitness,S. aureus Newman [6]; [14],0.773
same,fitness,S. aureus Newman [6]; [15],0.789
same,fitness,"S. aureus Newman [6]; first compound 0.5 µg/mL, partner 8 µg/mL, one replicate",0.854
CO/N=C(\C(=O)N[C@@H]1C(=O)N2C(C(=O)[O-])=C(C[N+]3(C)CCCC3)CS[C@H]12)c1csc(N)n1 [Cefepime] + Cc1ncc([N+](=O)[O-])n1CCO [Metronidazole],Bliss interaction score,S. aureus DSM 20231 [1],0.047
same,Bliss interaction score,B. subtilis 168,0.0894
same,Bliss interaction score,S. pneumoniae D39V [2],0.0181
same,Bliss interaction score,S. aureus Newman [3],-0.0502
same,fitness,S. aureus DSM 20231 [4]; [16],0.981
same,fitness,S. aureus DSM 20231 [4]; [17],≥ 1
same,fitness,S. aureus DSM 20231 [4]; [18],≥ 1
same,fitness,S. aureus DSM 20231 [4]; [19],0.958
same,fitness,S. aureus DSM 20231 [4]; [20],≥ 1
same,fitness,S. aureus DSM 20231 [4]; [21],≥ 1
same,fitness,S. aureus DSM 20231 [4]; [22],0.925
same,fitness,S. aureus DSM 20231 [4]; [23],0.958
same,fitness,S. aureus DSM 20231 [4]; [24],0.928
same,fitness,"S. pneumoniae D39V [5]; first compound 0.007 µg/mL, partner 1.25 µg/mL",≥ 1
same,fitness,"S. pneumoniae D39V [5]; first compound 0.007 µg/mL, partner 2.5 µg/mL",≥ 1
same,fitness,"S. pneumoniae D39V [5]; first compound 0.007 µg/mL, partner 5 µg/mL",≥ 1
same,fitness,"S. pneumoniae D39V [5]; first compound 0.0078 µg/mL, partner 1.073 µg/mL",0.998
same,fitness,"S. pneumoniae D39V [5]; first compound 0.0078 µg/mL, partner 2.145 µg/mL",0.943
same,fitness,"S. pneumoniae D39V [5]; first compound 0.0078 µg/mL, partner 4.29 µg/mL",0.988
same,fitness,"S. pneumoniae D39V [5]; first compound 0.014 µg/mL, partner 1.25 µg/mL",≥ 1
same,fitness,"S. pneumoniae D39V [5]; first compound 0.014 µg/mL, partner 2.5 µg/mL",≥ 1
same,fitness,"S. pneumoniae D39V [5]; first compound 0.014 µg/mL, partner 5 µg/mL",≥ 1
same,fitness,"S. pneumoniae D39V [5]; first compound 0.0155 µg/mL, partner 1.073 µg/mL",0.977
same,fitness,"S. pneumoniae D39V [5]; first compound 0.0155 µg/mL, partner 4.29 µg/mL",0.968
same,fitness,"S. pneumoniae D39V [5]; first compound 0.028 µg/mL, partner 1.25 µg/mL",0.957
same,fitness,"S. pneumoniae D39V [5]; first compound 0.028 µg/mL, partner 2.5 µg/mL",0.964
same,fitness,"S. pneumoniae D39V [5]; first compound 0.028 µg/mL, partner 5 µg/mL",0.912
same,fitness,"S. pneumoniae D39V [5]; first compound 0.031 µg/mL, partner 1.073 µg/mL",0.939
same,fitness,"S. pneumoniae D39V [5]; first compound 0.031 µg/mL, partner 2.145 µg/mL",0.9
same,fitness,"S. pneumoniae D39V [5]; first compound 0.031 µg/mL, partner 4.29 µg/mL",0.942
same,fitness,S. aureus Newman [6]; [16],0.942
same,fitness,"S. aureus Newman [6]; first compound 0.125 µg/mL, partner 0.781 µg/mL",0.957
same,fitness,S. aureus Newman [6]; [17],0.922
same,fitness,"S. aureus Newman [6]; first compound 0.125 µg/mL, partner 1.562 µg/mL",0.914
same,fitness,S. aureus Newman [6]; [18],0.957
same,fitness,"S. aureus Newman [6]; first compound 0.125 µg/mL, partner 3.124 µg/mL",0.924
same,fitness,S. aureus Newman [6]; [19],0.855
same,fitness,"S. aureus Newman [6]; first compound 0.25 µg/mL, partner 0.781 µg/mL",0.854
same,fitness,S. aureus Newman [6]; [20],0.876
same,fitness,"S. aureus Newman [6]; first compound 0.25 µg/mL, partner 1.562 µg/mL",0.844
same,fitness,S. aureus Newman [6]; [21],0.814
same,fitness,"S. aureus Newman [6]; first compound 0.25 µg/mL, partner 3.124 µg/mL",0.83
same,fitness,S. aureus Newman [6]; [22],0.799
same,fitness,"S. aureus Newman [6]; first compound 0.5 µg/mL, partner 0.781 µg/mL",0.761
same,fitness,S. aureus Newman [6]; [23],0.752
same,fitness,"S. aureus Newman [6]; first compound 0.5 µg/mL, partner 1.562 µg/mL",0.731
same,fitness,S. aureus Newman [6]; [24],0.749
same,fitness,"S. aureus Newman [6]; first compound 0.5 µg/mL, partner 3.124 µg/mL",0.764
